From ChEMBL document CHEMBL3217638, “Synthetic modulators of the retinoic acid receptor-related orphan receptors” (Medchemcomm, 2013) come the findings set out here.

Assay [1] concerns the target T1, Estrogen-related receptor gamma (Homo sapiens, UniProt P62508).
T1 sequence (P62508 whole entry): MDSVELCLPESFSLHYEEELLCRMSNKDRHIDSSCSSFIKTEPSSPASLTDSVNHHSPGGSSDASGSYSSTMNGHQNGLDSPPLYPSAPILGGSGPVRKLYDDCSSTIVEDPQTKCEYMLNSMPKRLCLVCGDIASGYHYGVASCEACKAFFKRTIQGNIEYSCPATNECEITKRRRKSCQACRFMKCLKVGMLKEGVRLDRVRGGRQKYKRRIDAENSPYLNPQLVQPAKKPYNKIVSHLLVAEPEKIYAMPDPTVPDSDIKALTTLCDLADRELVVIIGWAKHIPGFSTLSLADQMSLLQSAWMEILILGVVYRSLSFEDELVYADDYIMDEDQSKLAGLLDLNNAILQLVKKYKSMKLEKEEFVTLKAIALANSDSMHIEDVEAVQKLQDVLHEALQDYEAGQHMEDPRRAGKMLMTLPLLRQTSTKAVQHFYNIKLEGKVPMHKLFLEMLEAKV
Kind of assay: Binding affinity to human ERR gamma.

For assay [2], the target named is T2, Nuclear receptor ROR-gamma (Homo sapiens, UniProt P51449).
T2 sequence (P51449 whole entry): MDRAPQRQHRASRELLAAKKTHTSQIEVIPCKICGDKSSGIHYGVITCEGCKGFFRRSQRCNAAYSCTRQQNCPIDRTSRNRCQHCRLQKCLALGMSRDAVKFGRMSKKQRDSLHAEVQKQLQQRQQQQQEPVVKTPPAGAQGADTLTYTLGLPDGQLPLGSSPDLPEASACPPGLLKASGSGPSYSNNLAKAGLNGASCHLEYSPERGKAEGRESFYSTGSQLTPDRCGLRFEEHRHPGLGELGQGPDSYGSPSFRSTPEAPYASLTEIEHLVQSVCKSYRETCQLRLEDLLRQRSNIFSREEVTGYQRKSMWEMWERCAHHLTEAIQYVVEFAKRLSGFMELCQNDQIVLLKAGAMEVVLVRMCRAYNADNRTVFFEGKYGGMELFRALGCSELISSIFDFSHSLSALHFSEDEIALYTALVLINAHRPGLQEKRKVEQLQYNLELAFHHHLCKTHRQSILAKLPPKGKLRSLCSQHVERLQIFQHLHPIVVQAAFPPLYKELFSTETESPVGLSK
Kind of assay: Displacement of fluorescein-labeled 25-hydroxycholesterol from human N-terminal 6xHis-tagged ROR gamma LBD (residues 262 to 518) expressed in Escherichia coli BL21-CodonPlus(DE3)-RIL cells by fluorescence polarization assay. A general note: Fluorescence polarisation rises when a labelled molecule tumbles more slowly, as on binding a larger partner.

Each structure is given as a SMILES string. pIC50, pKd: −log10 of the molar value.

Take `CC(C)(c1ccc(O)cc1)c1ccc(O)cc1` [BISPHENOL A]: the pKd (commonly the negative decadic logarithm of the Kd, by convention in mol/L) in assay [1] is 8.26.
Take `C[C@H]1O[C@@H](O[C@H]2[C@@H](O)C[C@H](O[C@H]3[C@@H](O)C[C@H](O[C@H]4CC[C@@]5(C)[C@H](CC[C@@H]6[C@@H]5C[C@@H](O)[C@]5(C)[C@@H](C7=CC(=O)OC7)CC[C@]65O)C4)O[C@@H]3C)O[C@@H]2C)C[C@H](O)[C@@H]1O` [DIGOXIN]: in assay [2], the pIC50 (as a rule, the negative decadic logarithm of the IC50, by convention in mol/L) is 5.40.
